Data taken from patent US20240374529A1, “PHARMACEUTICAL COMPOSITION COMPRISING POLYSACCHARIDE” (HUNG, MIEN-CHIE, priority 2021, published 2024).
pIC50: −log10 of the molar value.

How the values were obtained:
Assay type in all cases: cell-based
MDA-MB-231 = assay: Cytotoxicity, triple negative breast cancer cell line MDA-MB-231; conditions: Homo sapiens
SKOV3 = assay: Cytotoxicity, ovarian cancer cell line SKOV3; conditions: Homo sapiens, SK-OV-3
4T1 = assay: Cytotoxicity, triple negative breast cancer cell line 4T1; conditions: Mus musculus
CFPAC-1 = assay: Cytotoxicity, pancreatic cancer cell line CFPAC-1; conditions: Homo sapiens
BxPC3 = assay: Cytotoxicity, pancreatic cancer cell line BxPC3; conditions: Homo sapiens, BXPC-3

CC(=O)O[C@@]12CO[C@@H]1C[C@H](O)[C@@]1(C)C(=O)[C@H](O)C3=C(C)[C@@H](OC(=O)[C@H](O)[C@@H](NC(=O)OC(C)(C)C)c4ccccc4)C[C@@](O)([C@@H](OC(=O)c4ccccc4)[C@H]21)C3(C)C [DTX, docetaxel]
pIC50 (MDA-MB-231): 7.73 | pIC50 (SKOV3): 8.00 | pIC50 (4T1): 7.54 | pIC50 (CFPAC-1): 7.41 | pIC50 (BxPC3): 7.64
